The values below come from ChEMBL document CHEMBL1153074, “Novel, achiral aminoheterocycles as selective monoamine reuptake inhibitors” (Bioorg Med Chem Lett, 2009).

For data set [1], the target named is Sodium-dependent dopamine transporter (Homo sapiens, UniProt Q01959).
Data set [2] concerns the target Sodium-dependent serotonin transporter (Homo sapiens, UniProt P31645).
The target of data set [3] is Sodium-dependent noradrenaline transporter (Homo sapiens, UniProt P23975).
Data set [4] has as its system Caco-2. The following applies: human, caco-2, 10 µM.
Description: (§1) Apparent permeability from apical to basolateral side of human Caco-2 cells at 10 uM after 21 days
Data set [5] has as its system Caco-2. The following applies: human, caco-2, 10 µM. This is another data set of the same source.
Description: (§2) Apparent permeability from basolateral to apical side of human Caco-2 cells at 10 uM after 21 days
Data set [6] addresses hERG (KCNH2) (Homo sapiens, UniProt Q12809). The experiment in a line: in vitro. As to conditions: CHO cells expressing human ERG.
Description: Inhibition of human ERG expressed in CHO cells
The target of data set [7] is CYP3A4 (Homo sapiens, UniProt P08684). The experiment in a line: in vitro.
CYP3A4, sequence (P08684 whole entry): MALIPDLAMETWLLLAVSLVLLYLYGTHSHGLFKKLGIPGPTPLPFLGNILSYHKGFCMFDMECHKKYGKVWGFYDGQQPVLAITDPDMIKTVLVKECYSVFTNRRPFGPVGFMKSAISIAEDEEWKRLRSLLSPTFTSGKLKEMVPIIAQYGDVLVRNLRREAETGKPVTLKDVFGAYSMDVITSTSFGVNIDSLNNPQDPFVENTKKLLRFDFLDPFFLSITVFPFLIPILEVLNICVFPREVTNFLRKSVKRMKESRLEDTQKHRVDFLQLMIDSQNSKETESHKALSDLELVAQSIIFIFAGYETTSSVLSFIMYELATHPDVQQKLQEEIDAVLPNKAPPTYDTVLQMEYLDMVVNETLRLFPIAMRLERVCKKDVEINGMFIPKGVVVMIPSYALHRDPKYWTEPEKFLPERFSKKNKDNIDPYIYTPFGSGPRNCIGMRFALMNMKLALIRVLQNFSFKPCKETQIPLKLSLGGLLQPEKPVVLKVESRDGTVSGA
Description: Inhibition of CYP3A4 by fluorescence assay
Data set [8] has as its target CYP2D6 (Homo sapiens, UniProt P10635). The experiment in a line: in vitro.
Description: Inhibition of CYP2D6 by fluorescence assay
The nature of data set [9]: in vitro. The following applies: human, liver microsomes. In general terms: Liver microsomes are a subcellular fraction often used to study metabolism.
Description: Intrinsic clearance in human liver microsomes
Data set [10] can be described thus: in vitro. The following applies: human, Caco-2.
Description: as §2
For data set [11], the target named is Cytochrome P450 3A4 (Homo sapiens, UniProt P08684). The experiment in a line: Inhibition of CYP3A4 in human liver microsomes after 25 mins. It counts as ADME, Microsome. The following applies: TDE = time-dependent effect.
Cytochrome P450 3A4, sequence (P08684 whole entry): as above
Data set [12] can be described thus: in vitro. The following applies: human, Caco-2. This is another data set of the same source.
Description: as §1
The nature of data set [13]: in vitro. As to conditions: human, Caco-2. This is another data set of the same source.
Description: Efflux ratio of apparent permeability from basolateral to apical side to apical to basolateral side in human Caco-2 cells at 10 uM after 21 days

Sodium-dependent dopamine transporter, sequence (Q01959 whole entry): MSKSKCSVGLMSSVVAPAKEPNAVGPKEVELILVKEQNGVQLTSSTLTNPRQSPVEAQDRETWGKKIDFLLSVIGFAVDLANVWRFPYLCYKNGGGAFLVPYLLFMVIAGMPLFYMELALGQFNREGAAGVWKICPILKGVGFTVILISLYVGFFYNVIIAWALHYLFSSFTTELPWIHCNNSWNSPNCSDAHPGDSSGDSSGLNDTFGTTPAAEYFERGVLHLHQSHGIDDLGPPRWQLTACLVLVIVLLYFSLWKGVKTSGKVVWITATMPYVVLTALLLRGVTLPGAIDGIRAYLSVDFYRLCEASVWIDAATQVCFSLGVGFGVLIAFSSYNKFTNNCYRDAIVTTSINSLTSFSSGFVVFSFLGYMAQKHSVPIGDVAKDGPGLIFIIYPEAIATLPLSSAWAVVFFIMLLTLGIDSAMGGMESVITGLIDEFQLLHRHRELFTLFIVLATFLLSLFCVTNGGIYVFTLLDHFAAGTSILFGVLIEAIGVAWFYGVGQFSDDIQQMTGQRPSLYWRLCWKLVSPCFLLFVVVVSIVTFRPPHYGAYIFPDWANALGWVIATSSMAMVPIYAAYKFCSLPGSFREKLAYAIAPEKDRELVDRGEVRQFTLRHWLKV
Sodium-dependent serotonin transporter, sequence (P31645 whole entry): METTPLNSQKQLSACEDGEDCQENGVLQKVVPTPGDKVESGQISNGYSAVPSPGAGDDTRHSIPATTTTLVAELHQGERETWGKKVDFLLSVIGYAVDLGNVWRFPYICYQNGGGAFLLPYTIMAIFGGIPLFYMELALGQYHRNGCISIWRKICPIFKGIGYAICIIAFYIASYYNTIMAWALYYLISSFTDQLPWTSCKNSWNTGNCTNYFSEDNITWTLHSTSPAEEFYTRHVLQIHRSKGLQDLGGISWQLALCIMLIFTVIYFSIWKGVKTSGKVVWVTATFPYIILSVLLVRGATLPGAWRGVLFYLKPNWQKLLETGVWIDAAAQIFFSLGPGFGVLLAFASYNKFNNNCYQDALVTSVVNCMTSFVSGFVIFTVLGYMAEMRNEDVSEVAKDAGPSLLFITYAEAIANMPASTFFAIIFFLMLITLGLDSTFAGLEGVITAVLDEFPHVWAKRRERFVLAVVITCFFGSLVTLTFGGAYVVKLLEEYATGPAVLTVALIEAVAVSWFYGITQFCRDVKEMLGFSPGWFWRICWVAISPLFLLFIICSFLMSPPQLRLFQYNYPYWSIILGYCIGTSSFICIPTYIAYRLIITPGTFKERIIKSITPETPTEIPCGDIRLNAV
Sodium-dependent noradrenaline transporter, sequence (P23975 whole entry): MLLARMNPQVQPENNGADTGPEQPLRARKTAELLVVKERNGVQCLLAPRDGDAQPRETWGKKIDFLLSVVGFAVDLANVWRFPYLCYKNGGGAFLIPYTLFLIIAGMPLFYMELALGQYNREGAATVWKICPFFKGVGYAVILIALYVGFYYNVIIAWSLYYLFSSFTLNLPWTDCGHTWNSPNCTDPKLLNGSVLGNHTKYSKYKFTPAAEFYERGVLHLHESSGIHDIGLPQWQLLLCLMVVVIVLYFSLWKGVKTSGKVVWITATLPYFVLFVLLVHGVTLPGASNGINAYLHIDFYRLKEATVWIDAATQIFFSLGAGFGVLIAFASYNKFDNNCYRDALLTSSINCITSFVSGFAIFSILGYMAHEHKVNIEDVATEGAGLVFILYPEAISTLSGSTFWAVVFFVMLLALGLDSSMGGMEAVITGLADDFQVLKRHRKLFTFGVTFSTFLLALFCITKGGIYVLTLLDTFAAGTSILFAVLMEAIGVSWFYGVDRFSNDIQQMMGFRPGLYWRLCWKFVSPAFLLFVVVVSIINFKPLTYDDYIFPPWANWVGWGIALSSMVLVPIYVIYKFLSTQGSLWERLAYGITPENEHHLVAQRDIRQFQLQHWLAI
CYP2D6, sequence (P10635 whole entry): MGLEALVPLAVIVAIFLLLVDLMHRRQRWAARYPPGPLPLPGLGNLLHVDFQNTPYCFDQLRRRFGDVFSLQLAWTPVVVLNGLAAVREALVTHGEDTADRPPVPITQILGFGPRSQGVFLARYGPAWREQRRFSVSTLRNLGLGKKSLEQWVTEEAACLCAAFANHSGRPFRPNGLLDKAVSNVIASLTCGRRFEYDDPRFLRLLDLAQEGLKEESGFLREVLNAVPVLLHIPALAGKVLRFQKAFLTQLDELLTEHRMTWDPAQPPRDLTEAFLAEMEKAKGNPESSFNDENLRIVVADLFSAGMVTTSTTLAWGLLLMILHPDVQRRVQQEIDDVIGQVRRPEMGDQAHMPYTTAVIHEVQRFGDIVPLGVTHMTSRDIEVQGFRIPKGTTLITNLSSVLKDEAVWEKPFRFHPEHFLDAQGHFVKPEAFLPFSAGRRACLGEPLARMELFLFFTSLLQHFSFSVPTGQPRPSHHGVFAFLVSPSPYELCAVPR
hERG (KCNH2), sequence (Q12809 whole entry): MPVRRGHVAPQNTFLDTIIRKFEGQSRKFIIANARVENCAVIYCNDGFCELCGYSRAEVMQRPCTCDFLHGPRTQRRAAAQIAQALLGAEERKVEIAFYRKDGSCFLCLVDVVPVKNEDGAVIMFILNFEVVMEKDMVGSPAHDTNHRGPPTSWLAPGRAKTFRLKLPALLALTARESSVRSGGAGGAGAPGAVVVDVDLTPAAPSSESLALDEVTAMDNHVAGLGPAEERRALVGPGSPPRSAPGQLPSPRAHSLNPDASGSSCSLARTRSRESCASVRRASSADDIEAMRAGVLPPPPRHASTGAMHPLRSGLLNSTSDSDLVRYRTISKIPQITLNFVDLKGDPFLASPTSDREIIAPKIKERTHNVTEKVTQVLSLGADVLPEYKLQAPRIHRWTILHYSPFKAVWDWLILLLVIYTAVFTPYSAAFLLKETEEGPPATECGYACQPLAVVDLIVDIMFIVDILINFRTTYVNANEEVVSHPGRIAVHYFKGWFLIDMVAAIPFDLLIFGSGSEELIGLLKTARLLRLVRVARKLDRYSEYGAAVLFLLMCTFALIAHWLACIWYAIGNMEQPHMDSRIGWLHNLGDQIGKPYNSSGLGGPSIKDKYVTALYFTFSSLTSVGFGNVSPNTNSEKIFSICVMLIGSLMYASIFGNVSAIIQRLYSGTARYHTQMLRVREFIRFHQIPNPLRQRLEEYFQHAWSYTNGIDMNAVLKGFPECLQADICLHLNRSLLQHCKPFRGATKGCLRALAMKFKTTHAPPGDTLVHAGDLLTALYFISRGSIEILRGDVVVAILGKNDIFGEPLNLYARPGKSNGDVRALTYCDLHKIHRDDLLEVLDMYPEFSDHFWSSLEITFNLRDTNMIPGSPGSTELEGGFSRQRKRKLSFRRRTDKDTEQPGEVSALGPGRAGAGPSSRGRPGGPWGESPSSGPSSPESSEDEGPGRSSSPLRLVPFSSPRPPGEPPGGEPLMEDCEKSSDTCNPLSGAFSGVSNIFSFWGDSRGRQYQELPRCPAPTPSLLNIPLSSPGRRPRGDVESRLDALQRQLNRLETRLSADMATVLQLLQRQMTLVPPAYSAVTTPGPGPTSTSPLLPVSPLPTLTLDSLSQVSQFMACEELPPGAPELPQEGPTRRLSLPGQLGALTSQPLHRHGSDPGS

For orientation: Ki means a measure of affinity in units of concentration, obtained from inhibition or displacement. On to `N#Cc1ccccc1CN(c1ccc2[nH]ccc2c1)C1CCNCC1`, for which the Ki in data set [1] is 501 nM; in [2] it was 3.98 nM; in [3] it was 6.31 nM.
Broadly, the Papp is the rate of passage across a membrane or cell layer, normalised by area and donor concentration. A high value points to ready permeation. As usually defined, the IC20 is the point of the concentration-response curve where the effect stands at 20%. In general, microsomal CLint refers to a measure of how fast metabolising enzymes remove a compound, apart from limits set by blood flow. High values mean faster metabolism, low ones greater metabolic stability. `c1ccc(CN(c2ccc3sccc3c2)C2CCNCC2)cc1`: the inhibition constant Ki in data set [1] is 200 nM; in data set [2], 12.6 nM; in data set [3], 200 nM. Moreover, the Papp is listed as 1.4 ×10⁻⁶ cm/s in [4] and 0.1 ×10⁻⁶ cm/s in [5]. The IC20 in [6] stood at 1000 nM; in [7], 19000 nM; in data set [8], 35000 nM. This compound came in with a microsomal CLint in data set [9] of 18 µL/min/mg.
Regarding `Fc1cccc(CN(c2ccc3[nH]ccc3c2)C2CCNCC2)c1`, the Ki was 79.4 nM in data set [1], 1.26 nM in [2] and 12.6 nM in data set [3].
The like results for `CC(c1ccccc1)N(c1ccc2[nH]ccc2c1)C1CCNCC1` (stereo unspecified) were, in that order, 1580 nM, 39.8 nM and 1580 nM.
As usually defined, the Papp B→A is the apparent permeability from the basolateral to the apical side of a cell layer. One may read the Papp A→B as how fast a substance crosses the layer from the apical side. The low end stands for slow passage, the high end for fast passage. With `c1ccc(CN(c2ccc3[nH]ccc3c2)C2CCNCC2)cc1`, the 20% effect concentration (IC20) in data set [6] came out at 1000 nM; in data set [7] it was 100 nM; in [8] it was 3000 nM. Further, the Papp B→A at 10 µM in [10] turned out to be 6 ×10⁻⁶ cm/s. The “inhibition (INH)” value in [11] is on record as “tde”. For the same compound, the apparent permeability from apical to basolateral (Papp A→B) at 10 µM in [12] was 6 ×10⁻⁶ cm/s. Moreover, in data set [9], the intrinsic metabolic clearance (microsomal CLint) is 17 µL/min/mg.
In the case of `c1ccc(CCN(c2ccc3[nH]ccc3c2)C2CCNCC2)cc1`, the Ki in [1] is 158 nM; in data set [2], 6.31 nM; in [3], 50.1 nM.
Regarding `Cn1ccc2cc(N(Cc3ccccc3)C3CCNCC3)ccc21`, the inhibition constant (Ki) in data set [1] is 79.4 nM; in data set [2] it was 3.98 nM; in data set [3], 25.1 nM. Moreover, the apparent permeability (Papp) in [4] came out at 7 ×10⁻⁶ cm/s; in data set [5] it was 4 ×10⁻⁶ cm/s. In addition, the figures for the concentration for an effect of 20% (IC20) in [6], in data set [7] and in [8] were 5100 nM, 5000 nM and above 50000 nM, respectively. In addition, the intrinsic clearance (microsomal CLint) in data set [9] was 26 µL/min/mg.
On to `CNCCN(c1ccccc1)c1ccc2[nH]ccc2c1`, for which the Ki is 501 nM in data set [1], 398 nM in data set [2] and 200 nM in data set [3]. For the same compound, the 20% effect concentration (IC20) in [7] stood at 2000 nM; in data set [8] it was 40000 nM.
For the compound `Fc1ccccc1CN(c1ccc2[nH]ccc2c1)C1CCNCC1`, the results for the Ki in [1], in [2] and in [3] were 126 nM, 3.98 nM and 12.6 nM, respectively.
In general, efflux ratio refers to the permeability from basolateral to apical divided by that in the opposite direction, in the common usage. As to `NS(=O)(=O)c1cccc(CN(c2ccc3[nH]ccc3c2)C2CCNCC2)c1`, the Ki in [1] was 25.1 nM; in [2] it was 6.31 nM; in data set [3], 79.4 nM. The values for the IC20 in data set [6], in [7] and in data set [8] were above 10000 nM, 2000 nM and 3000 nM, respectively. Further, the apparent permeability from basolateral to apical (Papp B→A) at 10 µM in [10] turned out to be 3 ×10⁻⁶ cm/s. This compound gave an apical-to-basolateral permeability (Papp A→B) at 10 µM in [12] of 0.7 ×10⁻⁶ cm/s. Further, in data set [9], the microsomal CLint came to 2 µL/min/mg. For the same compound, in data set [13], the efflux ratio at 10 µM was 4.2.
For `c1ccc(N(c2ccc3[nH]ccc3c2)C2CCNCC2)cc1`, the values for the Ki in [1], in data set [2] and in [3] were above 1580 nM, 1000 nM and 1260 nM, respectively. The IC20 was found to be 26000 nM in data set [7] and 14000 nM in data set [8].
Consider `c1ccc(CN(c2ccc3[nH]ncc3c2)C2CCNCC2)cc1`, for which the inhibition constant (Ki) in data set [1] was 50.1 nM; in data set [2], 1.26 nM; in data set [3], 15.8 nM. For the same compound, the IC20 in data set [6] was below 1000 nM; in [7], 500 nM; in data set [8], 400 nM.
As to `N#Cc1ccc(CN(c2ccc3[nH]ccc3c2)C2CCNCC2)cc1`, the Ki in [1] is 794 nM; in data set [2], 2.51 nM; in [3], 1000 nM.
Regarding `CNCCC(c1ccccc1)c1ccc2[nH]ccc2c1` (stereo unspecified), the inhibition constant Ki was 200 nM in data set [1] and 31.6 nM in data set [2]. Also, the IC20 was below 1000 nM in data set [6], 3000 nM in data set [7] and 5000 nM in data set [8]. In data set [9], this compound had a microsomal CLint of 11 µL/min/mg.
For the compound `Fc1ccc(CN(c2ccc3[nH]ccc3c2)C2CCNCC2)cc1`, the Ki in data set [1] is 251 nM; in data set [2] it was 2 nM; in data set [3], 251 nM.
Consider `c1ccc(CN(c2ccc3[nH]ccc3c2)C2CCCNC2)cc1` (stereo unspecified), for which the Ki in data set [1] is 39.8 nM; in data set [2] it was 6.31 nM; in data set [3] it was 63.1 nM. The figures for the 20% effect concentration (IC20) in data set [6], in data set [7] and in data set [8] were below 1000 nM, 300 nM and 5000 nM, respectively. The compound also registered a microsomal CLint in [9] of 23 µL/min/mg.
Consider `c1cc2cc(N(CC3CCOCC3)C3CCNCC3)ccc2[nH]1`, for which the inhibition constant Ki is 501 nM in data set [1], 39.8 nM in [2] and 39.8 nM in data set [3]. Further, the IC20 in data set [7] was above 50000 nM; in data set [8], 27000 nM.
As for `COc1cccc(CN(c2ccc3[nH]ccc3c2)C2CCNCC2)c1`, the inhibition constant (Ki) was 79.4 nM in data set [1], 1.58 nM in data set [2] and 3.98 nM in data set [3]. The compound also gave an IC20 in data set [6] of 1000 nM.
Take `N#Cc1cccc(CN(c2ccc3[nH]ccc3c2)C2CCNCC2)c1`: the Ki is 31.6 nM in data set [1], 0.251 nM in data set [2] and 10 nM in data set [3]. Also, the IC20 in [6] was below 1000 nM; in [7], 2000 nM; in data set [8] it was 500 nM. Moreover, the Papp B→A at 10 µM in data set [10] came out at 14 ×10⁻⁶ cm/s. In [12], this compound came in with a Papp A→B at 10 µM of 4 ×10⁻⁶ cm/s. The compound further came in with a microsomal CLint in [9] of 13 µL/min/mg. In data set [13], the efflux ratio at 10 µM was 3.6.
`c1ccc(CN(c2ccc3[nH]ccc3c2)C2CCNC2)cc1` (stereo unspecified): the inhibition constant Ki was 31.6 nM in data set [1], 20 nM in [2] and 10 nM in data set [3]. Also, the 20% effect concentration (IC20) in data set [6] was below 1000 nM; in data set [7], 2000 nM; in data set [8] it was 2000 nM. The compound further yielded a microsomal CLint in data set [9] of 36 µL/min/mg.
